The source of these data is patent US12195482B1 (Arcus Biosciences, Inc., priority 2022, dated 2025).

Structures are written as SMILES.

By IC50 is commonly meant the midpoint of a concentration-inhibition curve. Read a low IC50 as higher potency.

One test has as its target T1, p-AXL (Homo sapiens, UniProt P30530).
T1 construct: expressed in transfected cells; host or cells: HEK293T
T1 sequence (P30530 26-894): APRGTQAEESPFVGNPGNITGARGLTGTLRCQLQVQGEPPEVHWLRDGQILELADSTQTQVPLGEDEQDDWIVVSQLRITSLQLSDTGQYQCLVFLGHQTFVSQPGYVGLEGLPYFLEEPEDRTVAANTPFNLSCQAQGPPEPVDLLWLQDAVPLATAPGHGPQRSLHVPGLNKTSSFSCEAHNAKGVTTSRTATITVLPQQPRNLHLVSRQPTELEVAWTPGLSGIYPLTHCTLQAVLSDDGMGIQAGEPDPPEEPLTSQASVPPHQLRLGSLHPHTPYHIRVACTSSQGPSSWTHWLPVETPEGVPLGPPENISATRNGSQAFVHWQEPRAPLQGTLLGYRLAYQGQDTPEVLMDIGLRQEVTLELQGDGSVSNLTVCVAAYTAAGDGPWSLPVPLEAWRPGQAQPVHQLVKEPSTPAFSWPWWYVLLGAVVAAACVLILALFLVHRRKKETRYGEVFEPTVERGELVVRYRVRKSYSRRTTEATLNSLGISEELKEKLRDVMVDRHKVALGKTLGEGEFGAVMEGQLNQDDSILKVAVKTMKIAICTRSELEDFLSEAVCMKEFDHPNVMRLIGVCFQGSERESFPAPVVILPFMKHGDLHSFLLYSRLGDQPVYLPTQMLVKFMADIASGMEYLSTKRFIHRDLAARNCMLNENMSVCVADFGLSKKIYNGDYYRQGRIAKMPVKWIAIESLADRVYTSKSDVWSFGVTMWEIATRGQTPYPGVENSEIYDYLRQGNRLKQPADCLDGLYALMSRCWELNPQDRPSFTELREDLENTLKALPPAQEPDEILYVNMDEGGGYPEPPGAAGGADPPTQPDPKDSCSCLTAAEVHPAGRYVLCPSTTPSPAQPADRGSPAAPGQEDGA
The experiment in a line: Axl phosphorylation inhibition ELISA in HEK293T cells transfected with NanoLuc-tagged AXL. The test is classed as cell-based. To be noted: 1 h compound incubation, media (OptiMEM). In short, it runs like this: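 HEK293T cells transiently transfected one day earlier with NanoLuc-tagged AXL were exposed to 22-point 2-fold compound dilutions for 1 h at 37° C (70,000 cells/well), then lysed. Lysates captured on anti-phospho-tyrosine coated plates for 2 h; bound p-AXL read by NanoLuc luminescence; IC50 from 4-parameter logistic fit.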
In general terms: An ELISA detects its analyte on a solid surface through an enzyme-linked reagent.

Another test addresses T2, Axl (Homo sapiens, UniProt P30530).
T2 sequence (P30530 26-894): T1 sequence (P30530 26-894)
The experiment in a line: Biochemical potency, HTRF KinEASE-TK kinase assay. The arrangement: purchased Invitrogen. To be noted: 5 nM AXL, 700 μM ATP. In short, it runs like this:
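Compounds preincubated 1 h at RT with enzyme in 50 mM HEPES pH 7.4, 10 mM MgCl2, 0.01% BSA, 1 mM DTT; reactions then ran 2 h at RT with 5 nM AXL or 1 nM TYRO3/MER, 800 nM TK substrate-biotin, 700 μM ATP, 1% DMSO. HTRF 665/620 ratio read; percent activity calculated.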
For orientation: In TR-FRET formats the signal depends on donor and acceptor labels being close together.

Consider `Cc1ccc(C)c(-c2ccc(-c3n[nH]c4ncc(-c5ccc6c(c5)CC[C@@H](N5C[C@@H]7C[C@H]5CO7)CC6)cc34)cc2)n1` [Example 141, (1S,4S)-5-[(7S)-2-{3-[4-(3,6-Dimethylpyridin-2-yl)phenyl]-1H-pyrazolo[3,4-b]pyridin-5-yl}-6,7,8,9-tetrahydro-5H-benzo[7]annulen-7-yl]-2-oxa-5-azabicyclo[2.2.1]heptane], for which the IC50 at p-AXL and against Axl was under 100 nM in each case.

Take `Cc1cccnc1-c1ccc(-c2c[nH]c3nnc(-c4ccc5c(c4)CC[C@@](C)(N4CCC[C@H]4C)CC5)cc23)cc1` [Example 18, 3-[(7S)-7-Methyl-7-[(2R)-2-methylpyrrolidin-1-yl]-5,6,8,9-tetrahydrobenzo[7]annulen-3-yl]-5-[4-(3-methylpyridin-2-yl)phenyl]-7H-pyrrolo[2,3-c]pyridazine]: the half-maximal inhibitory concentration (IC50) at p-AXL and against Axl was under 100 nM in each case.

Regarding `Cc1cccnc1-c1ccc(-c2c[nH]c3ncc(-c4ccc5c(c4)CC[C@@H](N4C6COCC4C6)CC5)cc23)c(F)c1` [Example 153, 6-[(7S)-2-{3-[2-Fluoro-4-(3-methylpyridin-2-yl)phenyl]-1H-pyrrolo[2,3-b]pyridin-5-yl}-6,7,8,9-tetrahydro-5H-benzo[7]annulen-7-yl]-3-oxa-6-azabicyclo[3.1.1]heptane], the IC50 against p-AXL and against Axl was under 100 nM each time.

As to `COCCN1CCc2ccc(-c3cnc4[nH]nc(-c5ccc(-c6ncccc6C)cc5)c4c3)cc2CC1` [Example 15, 3-(2-Methoxyethyl)-7-{3-[4-(3-methylpyridin-2-yl)phenyl]-1H-pyrazolo[3,4-b]pyridin-5-yl}-2,3,4,5-tetrahydro-1H-3-benzazepine], the figures for the concentration for half-maximal inhibition (IC50) against p-AXL and against Axl were 100 to 1000 nM and under 100 nM, respectively.

On to `Cc1cccnc1-c1cnc(-c2c[nH]c3ncc(-c4ccc5c(c4)CC[C@@H](N4C6COCC4C6)CC5)cc23)nc1` [Example 37, 6-[(7S)-3-[3-[5-(3-Methylpyridin-2-yl)pyrimidin-2-yl]-1H-pyrrolo[2,3-b]pyridin-5-yl]-6,7,8,9-tetrahydro-5H-benzo[7]annulen-7-yl]-3-oxa-6-azabicyclo[3.1.1]heptane], for which the IC50 on p-AXL and at Axl was under 100 nM in each case.

Consider `Cc1cccnc1-c1ccc(-c2c[nH]c3nnc(-c4ccc5c(c4)CC[C@@H](N4C6COCC4C6)CC5)cc23)cc1` [Example 36, 6-[(7S)-3-[5-[4-(3-Methylpyridin-2-yl)phenyl]-7H-pyrrolo[2,3-c]pyridazin-3-yl]-6,7,8,9-tetrahydro-5H-benzo[7]annulen-7-yl]-3-oxa-6-azabicyclo[3.1.1]heptane], for which the IC50 against p-AXL was over 1000 nM; at Axl, under 100 nM.

As to `Cc1ccc(N2CCCC2=O)c(-c2ccc(-c3n[nH]c4ncc(-c5ccc6c(c5)CC[C@@H](N5C7COCC5C7)CC6)cc34)cc2)n1` [Example 198, 1-[6-Methyl-2-(4-{5-[(7S)-7-{3-oxa-6-azabicyclo[3.1.1]heptan-6-yl}-6,7,8,9-tetrahydro-5H-benzo[7]annulen-2-yl]-1H-pyrazolo[3,4-b]pyridin-3-yl}phenyl)pyridin-3-yl]pyrrolidin-2-one], the results for the IC50 against p-AXL and against Axl were 100 to 1000 nM and under 100 nM, respectively.

On to `Cc1ccc(C(F)(F)F)nc1-c1ccc(-c2n[nH]c3ncc(-c4ccc5c(c4)CC[C@@H](N4C6COC[C@H]4C6)CC5)cc23)cc1` [Example 145, (1R)-6-[(7S)-2-(3-{4-[3-Methyl-6-(trifluoromethyl)pyridin-2-yl]phenyl}-1H-pyrazolo[3,4-b]pyridin-5-yl)-6,7,8,9-tetrahydro-5H-benzo[7]annulen-7-yl]-3-oxa-6-azabicyclo[3.1.1]heptane], for which the values for the IC50 against p-AXL and at Axl were 100 to 1000 nM and under 100 nM, respectively.

With `Cc1cnc(-c2ccc(-c3n[nH]c4ncc(-c5ccc6c(c5)CC[C@@](C)(N5CCC[C@H]5C)CC6)cc34)nc2)c(C)n1` [Example 60, 3,5-Dimethyl-2-(6-{5-[(7S)-7-methyl-7-[(2R)-2-methylpyrrolidin-1-yl]-6,7,8,9-tetrahydro-5H-benzo[7]annulen-2-yl]-1H-pyrazolo[3,4-b]pyridin-3-yl}pyridin-3-yl)pyrazine], the 50% inhibitory concentration (IC50) was 100 to 1000 nM against p-AXL and under 100 nM at Axl.

As for `Cc1ccc(C)c(-c2ccc(-c3c[nH]c4ncc(-c5ccc6c(c5)CC[C@@](C)(N5CCC[C@H]5C)CC6)cc34)cc2)n1` [Example 147, 3,6-Dimethyl-2-(4-{5-[(7S)-7-methyl-7-[(2R)-2-methylpyrrolidin-1-yl]-6,7,8,9-tetrahydro-5H-benzo[7]annulen-2-yl]-1H-pyrrolo[2,3-b]pyridin-3-yl}phenyl)pyridine], the IC50 against p-AXL and on Axl was under 100 nM each time.

On to `Cc1cccnc1-n1cc(-c2c[nH]c3ncc(-c4ccc5c(c4)CC[C@@H](N4C6COCC4C6)CC5)cc23)cn1` [Example 27, 6-[(7S)-2-{3-[1-(3-Methylpyridin-2-yl)-1H-pyrazol-4-yl]-1H-pyrrolo[2,3-b]pyridin-5-yl}-6,7,8,9-tetrahydro-5H-benzo[7]annulen-7-yl]-3-oxa-6-azabicyclo[3.1.1]heptane], for which the half-inhibitory concentration (IC50) at p-AXL and on Axl was under 100 nM throughout.

With `Cc1ncccc1-c1ccc(-c2c[nH]c3ncc(-c4ccc5c(c4)CC[C@@H](N4C6COCC4C6)CC5)cc23)cc1` [Example 74, 6-[(7S)-2-{3-[4-(2-Methylpyridin-3-yl)phenyl]-1H-pyrrolo[2,3-b]pyridin-5-yl}-6,7,8,9-tetrahydro-5H-benzo[7]annulen-7-yl]-3-oxa-6-azabicyclo[3.1.1]heptane], the IC50 at p-AXL was 100 to 1000 nM; at Axl, under 100 nM.

Turning to `Cn1c(-c2ccc(-c3c[nH]c4ncc(-c5ccc6c(c5)CC[C@@H](N5C7COCC5C7)CC6)cc34)cc2)cccc1=O` [Example 39, 1-Methyl-6-[4-[5-[(7S)-7-(3-oxa-6-azabicyclo[3.1.1]heptan-6-yl)-6,7,8,9-tetrahydro-5H-benzo[7]annulen-3-yl]-1H-pyrrolo[2,3-b]pyridin-3-yl]phenyl]pyridin-2-one], the IC50 against p-AXL and at Axl was under 100 nM in each case.

On to `Cc1ccc(-c2ccc(-c3c[nH]c4ncc(-c5ccc6c(c5)CC[C@@H](N5C7COCC5C7)CC6)cc34)cc2)c(C)n1` [Example 73, 6-[(7S)-2-{3-[4-(2,6-Dimethylpyridin-3-yl)phenyl]-1H-pyrrolo[2,3-b]pyridin-5-yl}-6,7,8,9-tetrahydro-5H-benzo[7]annulen-7-yl]-3-oxa-6-azabicyclo[3.1.1]heptane], for which the results for the IC50 at p-AXL and against Axl were 100 to 1000 nM and under 100 nM, respectively.

On to `Cc1cccnc1-c1ncc(-c2c[nH]c3ncc(-c4ccc5c(c4)CC[C@@H](N4C6COCC4C6)CC5)cc23)cn1` [Example 38, 6-[(7S)-3-[3-[2-(3-Methylpyridin-2-yl)pyrimidin-5-yl]-1H-pyrrolo[2,3-b]pyridin-5-yl]-6,7,8,9-tetrahydro-5H-benzo[7]annulen-7-yl]-3-oxa-6-azabicyclo[3.1.1]heptane], for which the IC50 at p-AXL and on Axl was under 100 nM each time.
